Reference: patent US20230391727A1, “ANALOGUES OF PENTAMIDINE AND METHODS FOR TREATING INFECTIONS” (Auransa Inc., priority 2020, published 2023)

Assays:
Test in all cases: Checkerboard/MIC assay with rifampicin
Type in all cases: cell-based
[1] = system: A. baumannii (ATCC 17978); conditions: Acinetobacter baumannii ATCC 17978
Description: (§1) The 17 test strains/isolates were: (1) Serratia marcescens (ATCC 13880); (2) Salmonella typhimurium (ATCC 13311); (3) Salmonella choleraesuis (ATCC 10708); (4) Acinetobacter baumannii (ATCC BAA-1605); (5) A. baumannii (ATCC 17978); (6) A. baumannii (FDA-CDC AR-BANK#0088); (7) Citrobacter freundii (ATCC 8090); (8) Pseudomonas aeruginosa (BCCM 27647); (9) P. aeruginosa (BCCM 27648); (10) Escherichia coli (ATCC 25922); (11) E. coli (ATCC 10536); (12) Stenotrophomonas maltophilia (ATCC 13637); (13) Enterobacter cloacae (ATCC BAA-1143); (14) E. cloacae (ATCC 13047); (15) E. aerogenes (ATCC 13048); (16) Klebsiella pneumoniae (NCTC 13438); and (17) Klebsiella pneumoniae (FDA-CDC AR-BANK#0160). These bacterial strains were obtained from the American Type Culture Collection (ATCC, Rockville, MD, USA); Belgian Coordinated Collections of Microorganisms; The Culture Collections of Public Health England, UK; and FDA-CDC anticimrobial Resistance Isolate Bank, USA, and cryopreserved as single-use frozen working stock cultures which were stored at −80° C.
(§2) The 17 test strains were grown on nutrient agar or tryptic soy agar (TSA) medium as below. Colonies were suspended in phosphate buffered saline (PBS) pH 7.4. The absorbance of the bacterial suspension was measured with a spectrophotometer at OD620nm, and then the suspension was adjusted to 1-2×10^8 CFU/mL in PBS. The adjusted suspension was further diluted 1:500 in cation-adjusted Mueller-Hinton Broth. Each well contained approximately 5×10^5 CFU/mL. […] The testing inoculum was prepared within minutes before adding to wells of the test plate.
(§3) Compound 3 was tested in 8 points by two-fold serial titrations from 100 to 0.78 μg/mL. […] Assay plates were incubated and MIC endpoints were read as complete inhibition of visual growth. The checkerboard combination analysis was performed following the MIC testing protocol to identify potential synergistic, indifferent or antagonistic interactions. The analysis also included each test substance alone at the same concentration ranges.
(§4) FIC (Fraction Inhibitory Concentration) and FIC Index (FICI) values for each test condition and the average of FICI values of all pairwise combinations were calculated to determine if synergy or antagonism existed between the two substances. The FIC index was determined by calculating the sum of the ratios of MICs (minimum inhibitory concentrations) for both substances. […] Synergy is defined as the FICI (Σ)≤0.5; additivity or indifference are defined as the FICI (Σ)>0.5 to ≤4; antagonism is defined as the FICI (Σ)>4. The two fold of highest test article concentration was used for FIC value calculations in the circumstances where MIC values were greater than the highest test article concentration.

[2] = system: A. baumannii (FDA-CDC AR-BANK#0088); conditions: Acinetobacter baumannii AR-BANK 0088
Description: as §1, §2, §3, §4

[3] = system: E. aerogenes (ATCC 13048); conditions: Enterobacter aerogenes ATCC-13048
Description: as §1, §2, §3, §4

[4] = system: E. cloacae (ATCC 13047); conditions: Enterobacter cloacae ATCC-13047
Description: as §1, §2, §3, §4

[5] = system: Enterobacter cloacae (ATCC BAA-1143); conditions: Enterobacter cloacae BAA-1143
Description: as §1, §2, §3, §4

[6] = system: Klebsiella pneumoniae (FDA-CDC AR-BANK#0160); conditions: Klebsiella pneumoniae AR-BANK#0160
Description: as §1, §2, §3, §4

[7] = system: Salmonella choleraesuis (ATCC 10708); conditions: Salmonella choleraesuis ATCC 10708
Description: as §1, §2, §3, §4

[8] = system: Salmonella typhimurium (ATCC 13311); conditions: Salmonella typhimurium ATCC13311
Description: as §1, §2, §3, §4

[9] = system: Stenotrophomonas maltophilia (ATCC 13637)
Description: as §1, §2, §3, §4

[10] = compound 3 in combination with rifampicin

## N=C(N)c1ccc(CC[C@H]2CCC[C@@H](CCc3ccc(C(=N)N)cc3)C2)cc1 [Compound 3, 4,4′-(2,2′-((1R,3S)-cyclohexane-1,3-diyl)bis(ethane-2,1-diyl))dibenzimidamide]
[1]; ATCC17978, substance alone
  MIC: 25 µg/mL
[1]; [10]
  Combination Result: synergy (Synergy is defined as the FICI (Σ)≤0.5)
  FICI (Average): 0.27
[2]; [10]
  Combination Result: synergy (Synergy is defined as the FICI (Σ)≤0.5)
  FICI (Average): 0.31
[2]; substance alone
  MIC: 25 µg/mL
[3]; Klebsiella aerogenes, ATCC13048, substance alone
  MIC: 100 µg/mL
[3]; [10]
  Combination Result: synergy (Synergy is defined as the FICI (Σ)≤0.5)
  FICI (Average): 0.19
[4]; ATCC13047, substance alone
  MIC: 100 µg/mL
[4]; [10]
  Combination Result: synergy (Synergy is defined as the FICI (Σ)≤0.5)
  FICI (Average): 0.19
[5]; [10]
  Combination Result: synergy (Synergy is defined as the FICI (Σ)≤0.5)
  FICI (Average): 0.19
[5]; substance alone
  MIC: 100 µg/mL
[6]; [10]
  Combination Result: synergy (Synergy is defined as the FICI (Σ)≤0.5)
  FICI (Average): 0.19
[6]; substance alone
  MIC: 100 µg/mL
[7]; Salmonella enterica, substance alone, read-out: MIC
  MIC: 50 µg/mL
[7]; [10]
  Combination Result: synergy (Synergy is defined as the FICI (Σ)≤0.5)
  FICI (Average): 0.32
[8]; Salmonella enterica, substance alone
  MIC: 12.5 µg/mL
[8]; [10]
  Combination Result: synergy (Synergy is defined as the FICI (Σ)≤0.5)
  FICI (Average): 0.34
[9]; ATCC13637, substance alone
  MIC: 12.5 µg/mL
[9]; [10]
  Combination Result: synergy (Synergy is defined as the FICI (Σ)≤0.5)
  FICI (Average): 0.39
